Values of other authors in patent US20100212666A1 (priority 2006, published 2010).

Settings: in vivo

## CC(C)c1cccc(C(C)C)c1O [propofol]
  Effect on resting ventilation at 1 C50 for respiratory depression: minimally depresses resting ventilation
  Sedation at 1 C50 for respiratory depression: adequate sedation
